Results reported in patent US5753648A, “Tricyclic benzazepine vasopressin antagonists” (American Cyanamid Company, priority 1996, dated 1998).

Key:
Rat Hepatic V1 Receptors = Rat Hepatic V1 Receptors (Rattus norvegicus, UniProt P30560); assay: Binding Assay to Rat Hepatic V1 Receptors
Description: Binding Assay to Rat Hepatic V1 Receptors
Rat liver plasma membranes expressing the vasopressin V1 receptor subtypes are isolated by sucrose density gradient according to the method described by Lesko et al, (1973). These membranes are quickly suspended in 50.0 mM Tris.HCl buffer, pH 7.4, containing 0.2% bovine serum albumin (BSA) and 0.1 mM phenylmethylsulfonylfluoride (PMSF) and kept frozen at -70° C. until used in subsequent binding experiments. For binding experiments, the following is added to the wells of a ninety-six well format microtiter plate: 100 μl of 100.0 mM Tris.HCl buffer containing 10.0 mM MgCl2, 0.2% heat inactivated BSA and a mixture of protease inhibitors: leupeptin, 1.0 mg %; aprotinin, 1.0 mg %; 1,10-phenanthroline,2.0 mg %; trypsin inhibitor, 10.0 mg % and 0.1 mM PMSF, 20.0 μl of [phenylalanyl-3,4,5,-^3 H] vaso-pressin (S.A. 45.1 Ci/mmole) at 0.8 nM, and the reaction initiated by the addition of 80 μl of tissue membranes containing 20 μg of tissue protein. The plates are kept undisturbed on the bench top at room temperature for 120 min. to reach equilibrium. Non-specific samples are assayed in the presence of 0.1 μm of the unlabeled antagonist phenylalanylvasopressin, added in 20.0 μl volume. For test compounds, these are solubilized in 50% dimethylsulfoxide (DMSO) and added in 20.0 μl volume to a final incubation volume of 200 μl. Upon completion of binding, the content of each well is filtered off, using a Brandel® cell Harvester (Gaithersburg, Md.). The radioactivity trapped on the filter disk by the ligand-receptor complex is assessed by liquid scintillation counting in a Packard LS Counter, with an efficiency of 65% for tritium. The data are analyzed for IC50 values by the LUNDON-2 program for competition (LUNDON SOFTWARE, Ohio).

oxytocin receptors = molecular target: T1, oxytocin receptors (Rattus norvegicus, UniProt P70536); assay: Oxytocin Receptor Binding
T1 sequence (P70536 1-388): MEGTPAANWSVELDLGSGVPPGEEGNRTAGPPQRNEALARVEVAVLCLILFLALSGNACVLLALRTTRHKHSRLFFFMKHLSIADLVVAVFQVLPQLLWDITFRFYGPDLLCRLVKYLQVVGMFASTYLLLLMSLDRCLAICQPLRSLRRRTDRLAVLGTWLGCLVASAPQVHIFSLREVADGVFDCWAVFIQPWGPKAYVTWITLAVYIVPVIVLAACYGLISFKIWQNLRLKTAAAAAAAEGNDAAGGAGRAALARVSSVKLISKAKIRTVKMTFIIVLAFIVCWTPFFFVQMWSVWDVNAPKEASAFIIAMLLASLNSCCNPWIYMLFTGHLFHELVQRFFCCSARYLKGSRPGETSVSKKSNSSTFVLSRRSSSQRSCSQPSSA

[1] = molecular target: T2, Human V2 Vasopressin Receptor (Homo sapiens, UniProt P30518); assay: Binding to Membranes of Mouse Fibroblast Cell Line (LV-2) Transfected with the cDNA Expressing the Human V2 Vasopressin Receptor; conditions: ** LV-2 cells transfected with human V2 receptor cDNA; read-out: V2 IC50 (**human V2 receptor)
T2 construct: expressed in transfected cells; host or cells: mouse fibroblast cell line LV-2
T2 sequence (P30518 whole entry): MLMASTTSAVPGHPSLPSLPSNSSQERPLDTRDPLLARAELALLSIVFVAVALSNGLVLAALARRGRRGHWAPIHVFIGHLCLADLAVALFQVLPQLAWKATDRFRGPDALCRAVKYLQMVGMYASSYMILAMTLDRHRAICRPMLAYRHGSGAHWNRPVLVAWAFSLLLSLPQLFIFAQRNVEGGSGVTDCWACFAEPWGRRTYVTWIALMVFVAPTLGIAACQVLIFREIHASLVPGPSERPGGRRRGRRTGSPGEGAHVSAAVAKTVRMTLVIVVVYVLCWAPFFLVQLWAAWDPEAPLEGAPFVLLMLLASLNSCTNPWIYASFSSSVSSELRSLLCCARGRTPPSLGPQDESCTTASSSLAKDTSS
Description: Binding to Membranes of Mouse Fibroblast Cell Line (LV-2) Transfected with the cDNA Expressing the Human V2 Vasopressin Receptor Membrane Preparation
Flasks of 175 ml capacity, containing attached cells grown to confluence, are cleared of culture medium by aspiration. The flasks containing the attached cells are rinsed with 2×5 ml of phosphate buffered saline (PBS) and the liquid aspirated off each time. Finally, 5 ml of an enzyme free dissociation Hank's based solution (Specialty Media, Inc., Lafayette, N.J.) is added and the flasks are left undisturbed for 2 min. The content of all flasks is poured into a centrifuge tube and the cells pelleted at 300×g for 15 min. The Hank's based solution is aspirated off and the cells homogenized with a polytron at setting #6 for 10 sec in 10.0 mM Tris.HCl buffer, pH 7.4 containing 0.25M sucrose and 1.0 mM EDTA. The homogenate is centrifuged at 1500×g for 10 min to remove ghost membranes. The supernatant fluid is centrifuged at 100,000×g for 60 min to pellet the receptor protein. Upon completion, the pellet is resuspended in a small volume of 50.0 mM Tris.HCl buffer, pH 7.4. The protein content is determined by the Lowry method and the receptor membranes are suspended in 50.0 mM Tris.HCl buffer containing 0.1 mM phenylmethylsulfonylfluoride (PMSF) and 0.2% bovine serum albumin (BSA) to give 2.5 mg receptor protein per ml of suspension.
For binding experiments, the following is added in μl volume to wells of a 96 well format of a microtiter plate: 100.0 μl of 100.0 mM Tris.HCl buffer containing 0.2% heat inactivated BSA, 10.0 mM MgCl2 and a mixture of protease inhibitors: leupeptin, 1.0 mg %; aprotinin, 1.0 mg %; 1,10-phenanthroline, 2.0 mg %; trypsin inhibitor, 10.0 mg % and 0.1 mM PMSF, 20.0 μl of [^3 H] Arginine^8, vasopressin (S.A. 75.0 Ci/mmole) at 0.8 nM and the reaction initiated by the addition of 80.0 μl of tissue membranes (200.0 μg tissue protein). The plates are left undisturbed on the bench top for 120 min to reach equilibrium. Non specific binding is assessed in the presence of 1.0 μm of unlabeled ligand, added in 20 μl volume. For test compounds, these are solubilized in 50% dimethylsulfoxide (DMSO) and added in 20.0 μl volume to a final incubation volume of 200 μl. Upon completion of binding, the content of each well is filtered off, using a Brandel® cell Harvester (Gaithersburg, Md.). The radioactivity trapped on the filter disk by the ligand-receptor complex is assessed by liquid scintillation counting in a Packard LS Counter, with an efficiency of 65% for tritium. The data are analyzed for IC50 values by the LUNDON-2 program for competition (LUNDON SOFTWARE, Ohio).

Rat Hepatic V1 Receptors, sequence (P30560 whole entry): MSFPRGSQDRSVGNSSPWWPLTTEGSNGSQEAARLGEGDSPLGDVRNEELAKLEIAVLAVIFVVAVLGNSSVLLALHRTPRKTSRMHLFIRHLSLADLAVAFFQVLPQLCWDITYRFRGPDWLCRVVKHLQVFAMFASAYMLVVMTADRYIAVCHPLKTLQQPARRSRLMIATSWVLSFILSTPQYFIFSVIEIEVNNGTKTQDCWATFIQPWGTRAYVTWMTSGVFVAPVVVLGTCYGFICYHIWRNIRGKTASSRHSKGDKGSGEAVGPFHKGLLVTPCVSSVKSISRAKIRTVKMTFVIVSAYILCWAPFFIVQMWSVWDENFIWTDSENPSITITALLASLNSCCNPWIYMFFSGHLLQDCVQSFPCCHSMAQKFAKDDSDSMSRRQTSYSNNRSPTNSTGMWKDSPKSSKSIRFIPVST

- IC50 (Rat Hepatic V1 Receptors): 33 nM
- inhibition at 10 µM (oxytocin receptors; dose 10 μM): 92%
- IC50 (oxytocin receptors; rat uterine membranes, [3H]oxytocin): 200 nM
- IC50 [1]: 5 nM
Compound: Cc1ccc(F)cc1C(=O)Nc1ccc(C(=O)N2Cc3cccn3Cc3ccccc32)cn1 [Example 1, N-[5-(5H-Pyrrolo[2,1-c][1,4]benzodiazetin-10(11H)-ylcarbonyl)-2-pyridinyl]-5-fluoro-2-methylbenzamide]
